Measurements published in PubChem BioAssay AID1963844 (Molecular Pharmacology Branch, DTP, NCI, 2024).
pIC50: −log10 of the molar value. Values joined by “and” are separate entries in the source; they are usually repeats but may differ in a detail not shown here. Identical values can stand only once.

System: 422866-222-R5-J1-PDC complex spheroid viability
Experiment: Anticancer human tumor 422866-222-R5-J1-PDC patient-derived pancreatic adenocarcinoma cell line growth inhibition [POLQ]
Settings: for viability, T/C: stronger effect = lower value
Experimental: Multicellular complex tumor spheroid response to Polymerase (POL) inhibitors (novobiocin, ART-558, RP6685) in combination with a variety of drugs and investigational agents in selected tumor cell lines
The POL inhibitors (novobiocin, ART-558, and RP6685) were evaluated both individually and in combination with standard of care and investigational anticancer small molecules within a complex spheroid model of solid tumors. . Complex spheroids include a stromal component modeled by human endothelial cells (HUVEC) and fibroblasts modeled by human mesenchymal stem cells (MSCs). The concentration ranges selected for each drug and investigational agent were based upon clinically achievable concentrations if the clinical Cmax of the agent was known.
Compounds. The drugs and investigational agents: novobiocin (NSC847541), ART-558 (NSC835418), RP-6685 (NSC848927), peposertib (NSC802822), ceralasertib (NSC780249), elimusertib (NSC800525), camonsertib (NSC841442), AZD-1390 (NSC803789), olaparib (NSC753686), talazoparib (NSC767125), rucaparib (NSC756644), sotorasib (NSC818433), MRTX-1133 (NSC836407), SN-38 (NSC673596), topotecan (NSC609699), epotoside (NSC141540), doxorubicin (NSC123127), gemcitabine (NSC613327), 5-fluorouracil (NSC19893), paclitaxel (NSC125973), vemurafenib (NSC761431), MSA-2 (NSC828583), SN-011 (NSC837082), adavosertib (NSC754352), prexasertib (NSC758257), carboplatin (NSC241240) and oxaliplatin (NSC266046), were obtained from the National Cancer Institute (NCI) Developmental Therapeutics Program Chemical Repository (21). The FDA-approved anticancer drug set is available from the Developmental Therapeutics Program at https://dtp.cancer.gov/organization/dscb/obtaining/. […] The stock solutions were prepared in dimethyl sulfoxide (DMSO, Sigma-Aldrich, St. Louis, MO, cat. D2650), except for the platinum compounds which were prepared in saline (Quality Biological, Gaithersburg, MD, cat. 114-055-101), at 800-fold the tested concentration and stored at -70 degrees C prior to their use. All drugs and investigational agents were tested over a range starting from a high concentration at or near the clinical Cmax and decreasing in half-log increments. If the clinical Cmax for an agent had not been determined, the highest concentration tested was 10 microM, except for SN-38, which was tested at a high concentration of 1 microM.
Cell Culture. All cells were maintained in an incubator at 37 degrees C and 5% CO2 with 95% humidity. The PDC lines were cultured according to standard operating procedures established by the NCI PDMR (https://pdmr.cancer.gov). Table 3 of the manuscript, lists the cell lines along with the number of the three cell types plated to form the mct-spheroids and media for tumor cell growth. After thawing, all PDC lines, except 997537-175-T-J1-PDC and 415267-285-R-J2-PDC, were cultured in Matrigel-coated flasks prepared with a working solution of 1X Ham's F-12 nutrient mix, without supplementation (Thermo Fisher Scientific, cat. 11765054), 100 U/mL penicillin-streptomycin (Thermo Fisher Scientific, cat. 15140122), and 2.5% Matrigel (Corning Inc., Corning, NY, cat. 354248) for the first three passages. The two PDC lines 997537-175-T-J1-PDC and 415267-285-R-J2-PDC were cultured on uncoated flasks. The 857933-349-R-J2-PDC line was cultured in 6C/Colon 1B media containing advanced DMEM/F-12 (Thermo Fisher Scientific, cat. 12634028), 10 mM HEPES (Thermo Fisher Scientific, cat. 15630080), 1X GlutaMAX supplement (Thermo Fisher Scientific, cat. 35050061), 0.1 mg/mL primocin (InvivoGen, San Diego, CA, cat. ant-pm-2), 10% defined fetal bovine serum, heat inactivated (HyClone Laboratories Inc., Logan, UT, cat. SH30070.03HI), 50% L-WRN conditioned media (ATCC, cat. CRL-3276), 1.25 mM N-Acetyl-L-cysteine (Sigma-Aldrich, cat. A9165), 10 mM nicotinamide (Sigma-Aldrich, cat. N0636), 1X B-27 supplement (Thermo Fisher Scientific, cat. 17504044), 1X N-2 supplement (Thermo Fisher Scientific, cat. […]

[1] = compound alone, run of 12/05/2023
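Further: spheroids exposed to compounds for one week before readout.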
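Wherever viability, T/C is given: percent of DMSO vehicle wells luminescence so 100% = untreated viability.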

With `CCc1cc2c(N3CCc4c(cc(Cn5ccnc5)cc4-c4cn(C)nc4C(F)(F)F)C3=O)ccnc2c(OC)n1` the viability, T/C (compound 0.0316 µM) was 93.7% and 75.7% and 82.9%, the viability, T/C (compound 0.1 µM) was 81% and 78.8% and 84.5% and the viability, T/C (compound 0.316 µM) was 89.8% and 81.5% and 92.5%. For the same compound, the viability, T/C (compound 1 µM) was 117% and 113% and 99.8%, the viability, T/C (compound 3.16 µM) was 129% and 108% and 106% and the viability, T/C (compound 10 µM) was 108% and 87.1% and 92.4%. The pIC50 (curve of compound) was under 5.00.

`CNCc1ccc(-c2[nH]c3cc(F)cc4c3c2CCNC4=O)cc1` was tested, and the viability, T/C (compound 0.0316 µM) was 88% and 95% and 99.8%, the viability, T/C (compound 0.1 µM) was 89.3% and 83.7% and 99.7% and the viability, T/C (compound 1 µM) was 90.7% and 102% and 101%. The viability, T/C (compound 3.16 µM) was 77.7% and 90.4% and 86.5%, the viability, T/C (compound 10 µM) was 94.5% and 76.6% and 86.3% and the pIC50 (curve of compound) was under 5.00.

`COc1cc(C2c3cc4c(cc3C(OC3OC5COC(C)OC5C(O)C3O)C3COC(=O)C23)OCO4)cc(OC)c1O` (stereo not drawn) was tested, and the viability, T/C (compound 0.0316 µM) was 90.2% and 97.7% and 97.4%, the viability, T/C (compound 0.1 µM) was 95% and 86.7% and 97.1% and the viability, T/C (compound 0.316 µM) was 79.5% and 59.3% and 73.2%. For the same compound, the viability, T/C (compound 1 µM) was 54.9% and 45.2% and 52.5%, the viability, T/C (compound 3.16 µM) was 37% and 39.4% and 37.1% and the viability, T/C (compound 10 µM) was 33.3% and 33.2% and 28.4%. For the same compound, the pIC50 (curve of compound) was 5.87 and 6.18 and 5.94.

For `COc1cc2cc(C(=O)CCC(=O)O)sc2cc1OC`, the viability, T/C (compound 0.0316 µM) was 106% and 85.3% and 94.7%, the viability, T/C (compound 0.1 µM) was 99.5% and 89.1% and 83% and the viability, T/C (compound 0.316 µM) was 107% and 91% and 88%. The viability, T/C (compound 3.16 µM) was 98.6% and 97.3% and 98% and the pIC50 (curve of compound) was under 5.00.

With `COc1ccc([C@@H](O)c2cc(-c3ncnc4cc(N5CCOCC5)ccc34)c(F)cc2Cl)nn1` the viability, T/C (compound 0.0316 µM) was 80.3% and 87.1% and 99.6%, the viability, T/C (compound 0.1 µM) was 84.6% and 77% and 79.5% and the viability, T/C (compound 0.316 µM) was 76.6% and 85.4% and 75.6%. For the same compound, the viability, T/C (compound 1 µM) was 62.4% and 59% and 67.8%, the viability, T/C (compound 3.16 µM) was 43.3% and 51.7% and 45.8% and the viability, T/C (compound 10 µM) was 35.5% and 35.1% and 37.1%. The pIC50 (curve of compound) was 5.68 and 5.55 and 5.52.

In the case of `COc1cccc(OCCCN)c1-c1cc(Nc2cnc(C#N)cn2)n[nH]1`, the viability, T/C (compound 0.00316 µM) was 61.5% and 71.1% and 79.5%, the viability, T/C (compound 0.01 µM) was 37.6% and 43.8% and 38% and the viability, T/C (compound 0.0316 µM) was 38.3% and 35% and 28.3%. For the same compound, the viability, T/C (compound 0.1 µM) was 38.7% and 31.6% and 31.1%, the viability, T/C (compound 0.316 µM) was 34% and 37.7% and 24.6% and the viability, T/C (compound 1 µM) was 35.8% and 33.7% and 48.9%. For the same compound, the pIC50 (curve of compound) was 8.25 and 8.12 and 8.15.

`COc1cccc2c1C(=O)c1c(O)c3c(c(O)c1C2=O)CC(O)(C(=O)CO)CC3OC1CC(N)C(O)C(C)O1` (stereo not drawn) was tested, and the viability, T/C (compound 0.0316 µM) was 70.1% and 56.7% and 69%, the viability, T/C (compound 0.316 µM) was 36.8% and 26.5% and 35.3% and the viability, T/C (compound 1 µM) was 34.3% and 23.3% and 26.8%. For the same compound, the viability, T/C (compound 3.16 µM) was 30.2% and 28.3% and 28.6%, the viability, T/C (compound 10 µM) was 33.7% and 25.8% and 38.8% and the pIC50 (curve of compound) was 6.97 and 7.16 and 6.66.

For `Cc1cccc(N(C)C(=O)C2C(O)CCN2c2nc(C)cc(C(F)(F)F)c2C#N)c1` (stereo not drawn), the viability, T/C (compound 0.1 µM) was 93.7% [middle of 13 runs], the viability, T/C (compound 0.316 µM) was 94.8% [middle of 13 runs] and the viability, T/C (compound 10 µM) was 99.8% [middle of 13 runs]. It also gave a pIC50 (compound alone, run of 11/27/2023) of under 5.00 and a pIC50 [1] of under 5.00.

In the case of `Cn1ncnc1[C@H]1c2n[nH]c(=O)c3cc(F)cc(c23)N[C@@H]1c1ccc(F)cc1`, the viability, T/C (compound 0.000316 µM) was 105% and 98.6% and 90.6%, the viability, T/C (compound 0.001 µM) was 94.4% and 84.4% and 82.5% and the viability, T/C (compound 0.00316 µM) was 95.8% and 100% and 84.7%. The viability, T/C (compound 0.01 µM) was 102% and 89.2% and 106%, the viability, T/C (compound 0.0316 µM) was 96.2% and 89.7% and 91.1% and the viability, T/C (compound 0.1 µM) was 82.2% and 98.5% and 82.5%. The pIC50 (curve of compound) was under 7.00.

With `Nc1ccc(C#CCN(C(=O)Cc2ncc(C(F)(F)F)cc2C(F)(F)F)c2ccc(F)cc2)nn1` the viability, T/C (compound 0.0316 µM) was 93.7% [middle of 13 runs], the viability, T/C (compound 0.1 µM) was 97.3% [middle of 13 runs] and the viability, T/C (compound 1 µM) was 97.2% [middle of 13 runs]. The viability, T/C (compound 3.16 µM) was 105% [middle of 13 runs], the viability, T/C (compound 10 µM) was 114% [middle of 13 runs] and the pIC50 [1] was under 5.00.

For `Nc1ccn(C2OC(CO)C(O)C2(F)F)c(=O)n1` (stereo not drawn), the viability, T/C (compound 0.0316 µM) was 62.1% and 51.8% and 64.1%, the viability, T/C (compound 0.1 µM) was 54.6% and 35.1% and 56.4% and the viability, T/C (compound 0.316 µM) was 41% and 37% and 34.6%. For the same compound, the viability, T/C (compound 1 µM) was 41.4% and 31.6% and 43%, the viability, T/C (compound 3.16 µM) was 38.3% and 35.9% and 36.3% and the viability, T/C (compound 10 µM) was 40.9% and 38.9% and 34.1%. The pIC50 (curve of compound) was 6.92 and > 7.50 and 6.84.

For `O=C(Nc1ccc(O)c(NS(=O)(=O)c2ccc(F)cc2)c1)c1ccc(-c2ccccc2)cc1`, the viability, T/C (compound 0.0316 µM) was 110% and 86.1% and 107%, the viability, T/C (compound 0.1 µM) was 79.5% and 94.1% and 96.3% and the viability, T/C (compound 0.316 µM) was 78.5% and 81.6% and 79.1%. For the same compound, the viability, T/C (compound 1 µM) was 90.2% and 93.1% and 97.9%, the viability, T/C (compound 3.16 µM) was 90% and 107% and 97.1% and the viability, T/C (compound 10 µM) was 106% and 113% and 128%. The pIC50 (curve of compound) was under 5.00.

`O=C(c1cc(Cc2n[nH]c(=O)c3ccccc23)ccc1F)N1CCN(C(=O)C2CC2)CC1` was tested, and the viability, T/C (compound 0.0316 µM) was 98.1% and 101% and 83.2%, the viability, T/C (compound 0.1 µM) was 97.3% and 102% and 84.5% and the viability, T/C (compound 1 µM) was 99.5% and 102% and 91.3%. For the same compound, the pIC50 (curve of compound) was under 5.00.

For `O=c1[nH]cc(F)c(=O)[nH]1`, the viability, T/C (compound 0.0316 µM) was 95.8% and 101% and 92%, the viability, T/C (compound 0.1 µM) was 103% and 93.5% and 99.9% and the viability, T/C (compound 0.316 µM) was 107% and 97.4% and 98.9%. The viability, T/C (compound 1 µM) was 85% and 101% and 80.7%, the viability, T/C (compound 3.16 µM) was 73.7% and 83.7% and 89.8% and the viability, T/C (compound 10 µM) was 74.5% and 73.4% and 72.8%. It also gave a pIC50 (curve of compound) of under 5.00.
